The record followed here is ChEMBL document CHEMBL6153120, “Identification of Structurally Novel KRASG12C Inhibitors through Covalent DNA-Encoded Library Screening” (J Med Chem, 2025).

Some results are limits rather than exact numbers.

The nature of data set [1]: Inhibition of ERK1/2 phosphorylation in human MIA PaCa-2 cells incubated for 2 hrs by MSD assay. It is filed as cell-based. The conditions noted are these: MIA PaCa-2, 2 h.
Another data set concerns MIA PaCa-2. The data set can be described thus: Antiproliferative activity against human MIA PaCa-2 cells assessed as reduction in cell viability incubated for 72 hrs by Cell Titer-Glo reagent based luminescent cell viability assay. It is filed as functional. The conditions noted are these: MIA PaCa-2, 72 h.
The next data set has as its target GTPase KRas (Homo sapiens, UniProt P01116, C118A/G12C). The data set can be described thus: Inhibition of recombinant His-tagged GDP-bound human KRAS G12C/C118A mutant (1 to 169 residues) (unknown origin) extracted by Escherichia coli assessed as SOS1-catalyzed GDP-GTP exchange preincubated for 2 hrs followed by SOS1 and GTP addition for 30 mins and measured after 45 mins of GST-tagged c-RAF addition by luminescence based Alphascreen assay.

Data set [2] in a line: Oral bioavailability in mouse. It is filed as ADME, organism-based. The following applies: in vivo.
Data set [3] is described as follows: Unbound AUC in mouse at 5 mg/kg, po. It is filed as ADME, organism-based. The following applies: in vivo.
The nature of data set [4]: Unbound AUC in mouse at 100 mg/kg, po. It is filed as ADME, organism-based. The conditions noted are these: in vivo.
Data set [5] in a line: Clearance in mouse. In kind it is ADME, organism-based. The conditions noted are these: in vivo.
A further data set is described as follows: animal or person. The following applies: Mus musculus, MIA PaCa-2, po, 2 h, read-out: INH.

For the compound `C=CC(=O)N1CC2(CCN(c3nc4c(c(N[C@H](CC(=O)NC)CC(C)C)n3)CCCC4)C2)C1`, the IC50 in data set [1] came out at 1590 nM; in the data set on MIA PaCa-2, 890 nM.
In the case of `C=CC(=O)N1CC2(CCN(c3nc4c(c(-c5cccc6sc(N)nc56)n3)CCCC4)C2)C1`, the IC50 on GTPase KRas is 890 nM; in data set [1] it was 8130 nM; in the data set on MIA PaCa-2, greater than 5000 nM.
For the compound `C=CC(=O)N1CC2(CCN(c3nc4c(c(-c5cc(O)cc6ccccc56)c3C#N)COC(C)(C)C4)C2)C1`, the IC50 on GTPase KRas is 22 nM; in data set [1] it was 101 nM; in the data set on MIA PaCa-2 it was 143 nM. In data set [2], this compound registered a bioavailability of 34%. In data set [3], this compound registered a fAUC of 0.013 µM·h.
As for `C=CC(=O)N1CC2(CCN(c3nc4c(c(-c5cc(O)cc6ccccc56)c3F)COC(C)(C)C4)C2)C1`, the IC50 at GTPase KRas stood at 62 nM; in data set [1] it was 217 nM; with MIA PaCa-2 it was 119 nM. In addition, the bioavailability in data set [2] was found to be 27%. In addition, the values for the fAUC in data set [3] and in data set [4] were 0.027 µM·h and 0.36 µM·h, respectively.
Turning to `C=CC(=O)N1CC2(CCN(c3nc4c(c(-c5c(C)ccc6[nH]ncc56)c3C#N)C[C@H]3C[C@@H]4C3(C)C)C2)C1`, the IC50 at GTPase KRas was found to be 19 nM; in data set [1] it was 10 nM; with MIA PaCa-2, 11 nM.
For the compound `C=CC(=O)N1CC2(CCN(c3nc(N[C@H](CC(=O)NC)CC(C)C)nc(-c4cccc(OC)c4OC)n3)C(C)C2)C1` (stereo not given in full), the IC50 on GTPase KRas was 3200 nM; in data set [1] it was 6010 nM.
`C=CC(=O)N1CC2(CCN(c3nc4c(c(-c5cc(O)cc6ccccc56)c3C)COC(C)(C)C4)C2)C1`: the IC50 is 100 nM in data set [1] and 32 nM with MIA PaCa-2. Moreover, the bioavailability in data set [2] worked out at 44%. Besides, the fAUC in data set [3] was 0.018 µM·h; in data set [4], 0.137 µM·h.
`C=CC(=O)N1CC2(CCN(c3nc4c(c(-c5cc(O)cc6ccccc56)c3C#N)C[C@H]3C[C@@H]4C3(C)C)C2)C1`: the IC50 is 19 nM at GTPase KRas, 40 nM in data set [1] and 21 nM in the data set on MIA PaCa-2. Moreover, the bioavailability in data set [2] turned out to be 4%. This compound also gave a fAUC in data set [3] of 0.001 µM·h.
For the compound `C=CC(=O)N1CC2(CCN(c3nc4c(c(-c5c(C)ccc6[nH]ncc56)c3C#N)COC(C)(C)C4)C2)C1`, the values for the IC50 (at GTPase KRas; in data set [1]; in the data set on MIA PaCa-2) were 64 nM, 158 nM and 96 nM, respectively. Moreover, the clearance in data set [5] is 90 mL/min/kg. In data set [2], this compound came in with a bioavailability of 3%. For the same compound, in data set [3], the fAUC was 0.003 µM·h.
Regarding `C=CC(=O)N1CC2(CCN(c3nc4c(c(-c5cc(O)cc6ccccc56)n3)CCCC4)C2)C1`, the IC50 on GTPase KRas is 690 nM; in data set [1], 8480 nM; in the data set on MIA PaCa-2, greater than 5000 nM.
Turning to `C=CC(=O)N1CC2(CCN(c3nc(N[C@H](CC(=O)NC)CC(C)C)nc(-c4cccc(OC)c4F)n3)C2)C1`, the IC50 on GTPase KRas was 610 nM; in data set [1] it was 1230 nM; with MIA PaCa-2, 720 nM.
In turn, `C=CC(=O)N1CC2(CCN(c3nc4c(c(-c5cc(O)cc6ccccc56)c3F)C[C@H]3C[C@@H]4C3(C)C)C2)C1` gave a bioavailability in data set [2] of 14%. Moreover, the results for the fAUC in data set [3] and in data set [4] were 0.021 µM·h and 1.01 µM·h, respectively. The inhibition in vivo at 100 mg/kg in the data set “animal or person” worked out at 55%.
Consider `C=CC(=O)N1CC2(CCN(c3nc4c(c(-c5c(C)ccc6[nH]ncc56)n3)CCC(C)(C)C4)C2)C1`, for which the results for the 50% inhibitory concentration (IC50) (on GTPase KRas; in data set [1]; in the data set with MIA PaCa-2) were 840 nM, 6390 nM and 3350 nM, respectively.
With `C=CC(=O)N1CC2(CCN(c3nc(N[C@H](CC(=O)NC)CC(C)C)nc(-c4cc(F)ccc4OC)n3)CC2(F)F)C1`, the IC50 at GTPase KRas worked out at 300 nM; in data set [1], 950 nM; with MIA PaCa-2 it was 720 nM.
Take `C=CC(=O)N1CC2(CCN(c3nc(N[C@H](CC(=O)NC)CC(C)C)c4ccccc4n3)C2)C1`: the IC50 in data set [1] turned out to be 6170 nM; in the data set with MIA PaCa-2 it was 1290 nM.
`C=CC(=O)N1CC2(CCN(c3nc4c(c(-c5cc(O)cc6ccccc56)c3Cl)COC(C)(C)C4)C2)C1` came in with a bioavailability in data set [2] of 50%. The fAUC was determined as 0.042 µM·h in data set [3] and 0.15 µM·h in data set [4].
With `C=CC(=O)N1CC2(CCN(c3nc(N[C@H](CC(=O)NC)CC(C)C)nc(-c4cccc(OC)c4Cl)n3)CC2)C1`, the figures for the IC50 (on GTPase KRas; in data set [1]) were 1750 nM and 8840 nM, respectively.
Turning to `C=CC(=O)N1CC2(CCN(c3nc4c(c(-c5c(C)ccc6[nH]ncc56)n3)CCCC4)C2)C1`, the results for the IC50 (on GTPase KRas; in data set [1]; with MIA PaCa-2) were 3830 nM, 8240 nM and greater than 5000 nM, respectively.
Regarding `C=CC(=O)N1CC2(CCN(c3nc4c(c(-c5c(C)ccc6[nH]ncc56)c3C#N)CCC(C)(C)C4)C2)C1` (atropisomer P), the IC50 was found to be 67 nM in data set [1] and 42 nM in the data set on MIA PaCa-2.
